Source: paper PMC10709440, “High-throughput ligand profile characterization in novel cell lines expressing seven heterologous insect olfactory receptors for the detection of volatile plant biomarkers” (Scientific Reports, 2023)

What was measured:
[1] = target: T1, Drosophila OR47a (Drosophila melanogaster, UniProt P81921); assay: Calcium ion fluorescence (GCaMP6) assay, OR47a stable HEK293 cell line; type: cell-based; details: for OR47a response (VUAA1-normalized) at 1 μM / OR47a response (VUAA1-normalized) at 10 μM / OR47a response (VUAA1-normalized) at 100 μM / Average response: OR47a cell line; for OR47a response (VUAA1-normalized) at 1 μM: VOC concentration 1 μM; for OR47a response (VUAA1-normalized) at 10 μM: VOC concentration 10 μM; for OR47a response (VUAA1-normalized) at 100 μM: VOC concentration 100 μM; for Average response: mean of biological replicates; for DF norm AVERAGE OR47a: threshold 0.05, below shown as 0
T1 construct: expressed in transfected cells
T1 sequence (P81921 1-385): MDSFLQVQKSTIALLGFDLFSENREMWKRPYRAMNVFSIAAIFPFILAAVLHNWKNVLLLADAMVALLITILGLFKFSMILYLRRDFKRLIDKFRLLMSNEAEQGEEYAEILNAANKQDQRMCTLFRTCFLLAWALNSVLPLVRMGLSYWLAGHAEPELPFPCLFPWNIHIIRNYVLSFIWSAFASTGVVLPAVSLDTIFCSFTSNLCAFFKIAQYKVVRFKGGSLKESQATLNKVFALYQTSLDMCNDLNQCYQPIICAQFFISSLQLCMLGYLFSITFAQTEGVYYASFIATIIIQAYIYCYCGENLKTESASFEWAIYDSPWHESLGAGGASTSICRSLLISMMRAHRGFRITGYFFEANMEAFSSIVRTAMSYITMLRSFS
T1 sequence (Q9VNB5 1-486 partner): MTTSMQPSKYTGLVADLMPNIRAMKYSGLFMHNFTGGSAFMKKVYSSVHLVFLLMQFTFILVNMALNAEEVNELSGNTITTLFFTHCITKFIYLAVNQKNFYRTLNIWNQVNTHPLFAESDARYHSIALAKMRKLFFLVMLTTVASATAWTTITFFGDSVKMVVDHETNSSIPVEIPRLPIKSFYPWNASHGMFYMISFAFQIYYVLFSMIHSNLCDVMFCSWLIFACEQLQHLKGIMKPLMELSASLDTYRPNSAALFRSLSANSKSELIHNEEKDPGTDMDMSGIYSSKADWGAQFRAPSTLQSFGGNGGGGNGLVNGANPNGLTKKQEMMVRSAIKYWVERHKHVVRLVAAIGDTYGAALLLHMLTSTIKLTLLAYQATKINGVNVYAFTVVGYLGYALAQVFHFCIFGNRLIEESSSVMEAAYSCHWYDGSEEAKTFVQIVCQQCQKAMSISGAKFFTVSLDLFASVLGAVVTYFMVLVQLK
Outline: (§1)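 Responses are VUAA1-normalized ΔF: each VOC-evoked calcium signal, (FMAX−F0)/F0 over 30 s after injection, divided by the same line's mean 50 µM VUAA1 response. Cells were doxycycline-induced HEK293 with GCaMP6 and the cognate Drosophila OR, in HEPES buffer pH 7.3; ligands tested 0.01–100 μM.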

[2] = target: T2, Drosophila OR85b (Drosophila melanogaster, UniProt Q9VHQ7); assay: Calcium ion fluorescence (GCaMP6) assay, OR85b stable HEK293 cell line; type: cell-based; details: for OR85b response (VUAA1-normalized) at 1 μM / OR85b response (VUAA1-normalized) at 10 μM / OR85b response (VUAA1-normalized) at 100 μM / Average response: OR85b cell line; for OR85b response (VUAA1-normalized) at 1 μM: VOC concentration 1 μM; for OR85b response (VUAA1-normalized) at 10 μM: VOC concentration 10 μM; for OR85b response (VUAA1-normalized) at 100 μM: VOC concentration 100 μM; for Average response: VUAA1-normalized response, mean of biological replicates; for DF norm AVERAGE OR85b: threshold 0.05, below shown as 0
T2 construct: expressed in transfected cells
T2 sequence (Q9VHQ7 1-390): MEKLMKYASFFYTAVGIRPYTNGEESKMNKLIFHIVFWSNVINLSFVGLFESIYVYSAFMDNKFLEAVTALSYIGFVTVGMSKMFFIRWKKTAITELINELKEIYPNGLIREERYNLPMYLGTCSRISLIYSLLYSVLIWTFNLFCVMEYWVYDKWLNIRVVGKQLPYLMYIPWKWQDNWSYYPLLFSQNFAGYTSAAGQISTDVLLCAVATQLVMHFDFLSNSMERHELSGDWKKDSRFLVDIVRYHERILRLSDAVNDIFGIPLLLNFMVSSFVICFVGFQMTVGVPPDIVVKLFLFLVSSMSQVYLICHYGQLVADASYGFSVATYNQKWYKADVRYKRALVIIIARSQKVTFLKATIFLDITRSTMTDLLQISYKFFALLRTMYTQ
T2 sequence (Q9VNB5 1-486 partner): T1 sequence (Q9VNB5 1-486 partner)
Outline: as §1

[3] = ligand concentration 1 (unit not given)
[4] = ligand concentration 10 (unit not given)
[5] = ligand concentration 100 (unit not given)
[6] = HEK293, read-out: OR47a Average response (VUAA1-normalized)
[7] = HEK293, read-out: OR85b Average response (VUAA1-normalized)

Compound | OR47a response (VUAA1-normalized) at 1 μM [1] | OR47a response (VUAA1-normalized) at 10 μM [1] | OR47a response (VUAA1-normalized) at 100 μM [1] | Average response ([1]; odorant cc. 1 µM) | Average response ([1]; odorant cc. 10 µM) | Average response ([1]; odorant cc. 100 µM) | DF norm AVERAGE OR47a [1, 3] | DF norm AVERAGE OR47a [1, 4] | DF norm AVERAGE OR47a [1, 5] | OR85b response (VUAA1-normalized) at 1 μM [2] | OR85b response (VUAA1-normalized) at 10 μM [2] | OR85b response (VUAA1-normalized) at 100 μM [2] | Average response ([2]; cc. 1 µM) | Average response ([2]; cc. 10 µM) | Average response ([2]; cc. 100 µM) | DF norm AVERAGE OR85b [2, 3] | DF norm AVERAGE OR85b [2, 4] | DF norm AVERAGE OR85b [2, 5] | other results
Cc1cccc(C)c1 [m-xylene] | 0.00 | 0.00 | 0.00 | 0.00 | 0.00 | 0.00 | 0 | 0 | 0 | 0.00 | 0.00 | 0.09 | 0.023 | 0.00 | 0.09 | 0 | 0 | 0.08801 | 
COC(=O)c1ccccc1O [methyl salicylate] | 0.11 | 0.00 | 0.14 | 0.11 | 0.00759 | 0.14 | 0.1126 | 0 | 0.1364 | 0.00 | 0.00 | 0.13 | 0.00 | 0.0263 | 0.13 | 0 | 0 | 0.1286 | activation at 1 µM [1, 6]: 11%; activation at 10 µM [1, 6]: 1%; activation at 100 µM [1, 6]: 14%; activation at 1 µM [2, 7]: 0%; activation at 10 µM [2, 7]: 3%; activation at 100 µM [2, 7]: 13%
